Experimental data: the SangsterLogP compilation

How the values were obtained:
[1] = method code SF-CR, from DOI: 10.3891/acta.chem.scand.05-0774
[2] = method code SF-TN, from DOI: 10.3891/acta.chem.scand.05-0774

| Structure (SMILES) | logP | logP [2] | also measured |
| --- | --- | --- | --- |
| C1CNCCN1 | -1.17 |  |  |
| CC(O)CNCC(C)O (centres undefined) | -0.82 |  |  |
| COCOC |  |  | logP [1]: 0 |
| CC(C)(O)C(=O)O |  | -0.36 |  |
| OCCNCCO | -1.43 |  |  |
| COC(C)=O |  |  | logP [1]: 0.18 |
| O=C(O)CC(O)C(=O)O (centres undefined) |  | -1.26 |  |
| NCCO | -1.31 |  |  |
| O=C(O)CCCCCCCC(=O)O |  | 1.59 |  |
| CC(O)C(C)O (centres undefined) |  |  | logP [1]: -0.92 |
| O=C(O)CBr |  | 0.41 |  |
| CCC(Br)C(=O)O (centres undefined) |  | 1.42 |  |
| CC(Br)C(=O)O (centres undefined) |  | 0.92 |  |
| CC(O)CN (centres undefined) | -0.96 |  |  |
